Data reported in article PMC12217481, “Structure and mechanism of taniborbactam inhibition of the cefepime-hydrolyzing, partial R2-loop deletion Pseudomonas-derived cephalosporinase variant PDC-88” (Antimicrobial Agents and Chemotherapy, 2025).
Converted amounts (≈) assume the structure as drawn. Read-outs that look alike come from different tables or passages of the source.

Columns and labels:
[1] = system: E. coli DH10B/pTU609 (PDC-3); experiment: Broth microdilution MIC, isogenic E. coli expressing PDC-3; assay type: cell-based; conditions: Escherichia coli
Description: (§1) Genetic constructs used for minimum inhibitory concentration (MIC) testing were designed by Venatorx Pharmaceuticals and codon-optimized for use in E. coli and synthesized by Twist Bioscience as described previously ([9]). […] DH10B cells expressing an empty pET24a(+) vector (Novagen) were also grown, and the plasmid purified. Both pCR4-TOPO-PDC-88 and empty pET24a(+) were cut with BamHI and NdeI, the digests run on low-melting point agarose gels, and the bands of interest excised and ligated to yield a PDC-88 expressing pET24a(+) construct with the His tag removed. The PDC-3 expression construct was created in a similar manner but starting with a previously described pBC SK(−) vector ([42]). The final plasmids were grown in E. coli DH10B cells and purified.
(§2) Modal broth microdilution MICs (or median broth microdilution MICs where appropriate) were determined in accordance with Clinical and Laboratory Standards Institute (CLSI) M07 guidelines ([43]). Isogenic E. coli DH10B cells expressing the abovementioned plasmid-encoded PDC constructs were used. […] CLSI quality control strains Escherichia coli NCTC 13353, E. coli ATCC 35218, and Klebsiella pneumoniae ATCC 700603 were used during testing ([24]).

[2] = system: E. coli DH10B/pTU628 (PDC-91); experiment: Broth microdilution MIC, isogenic E. coli expressing PDC-91; assay type: cell-based; conditions: Escherichia coli
Description: as §1, §2

[3] = system: E. coli DH10B/pTU629 (PDC-92); experiment: Broth microdilution MIC, isogenic E. coli expressing PDC-92; assay type: cell-based; conditions: Escherichia coli
Description: as §1, §2

E. coli NCTC 13353 = experiment: Broth microdilution MIC, CLSI quality control strain; assay type: cell-based; conditions: Escherichia coli
Description: as §2

PDC-3 = target: T1, PDC-3 (Pseudomonas aeruginosa, UniProt P24735, T105A); experiment: Spectrophotometric β-lactam hydrolysis (progress curves, steady-state kinetics) by PDC-3; assay type: biochemical
T1 construct: The PDC-3 expression construct was created in a similar manner but starting with a previously described pBC SK(−) vector; made in house; host or cells: E. coli BL21-CodonPlus (DE3)-RP, pET24a(+)
Description: (§3) In order to determine the impact of the PDC-88 variant on hydrolysis, we determined hydrolysis progress curves for PDC-3, PDC-88, and a strongly hydrolyzing comparator (NDM-1 or PER-2) for cefepime (FEP, Fig. 3A), ceftazidime (CAZ, Fig. 3B), ceftolozane (TOL, Fig. 3C), and aztreonam (ATM, Fig. 3D).
(§4) β-Lactamase kinetic and inhibitor constants were determined using an Agilent 8453 UV-Visible Spectrophotometer to record progress curves and determine initial rates and other kinetic parameters as appropriate. Reactions were carried out in 1× phosphate-buffered saline (PBS) (pH 7.4) at room temperature in a 0.2 cm path-length quartz cuvette (Hellma Analytics). Reads were taken every 10 s to minimize UV-mediated background hydrolysis.
(§5) The extinction coefficients used were: nitrocefin, Δε482 = 17,400 M^−1 cm^−1, and cefepime, Δε260 = −10,000 M^−1 cm^−1.
(§6) The kinetic constants KM and Vmax were determined using a nonlinear least-squares regression of the data to the Henri-Michaelis-Menten equation (equation 1) in Origin Version 2020b (OriginLab, Northampton, MA), where v is the velocity of the reaction; Vmax is the theoretical maximum velocity; KM is the Michaelis constant; and [S] is the substrate concentration: […]

PDC-88 [4] = target: T2, PDC-88 (Pseudomonas aeruginosa, UniProt P24735, DEL316-317/G27D/G391A/T105A/V205L/V356I); experiment: Spectrophotometric β-lactam hydrolysis (progress curves, steady-state kinetics) by PDC-88; assay type: biochemical
T2 construct: NdeI 5′-[…]-3ʹ and BamHI 5ʹ-[…]-3ʹ; His tag removed) (N); made in house; host or cells: E. coli BL21-CodonPlus (DE3)-RP, pET24a(+)
Description: as §3, §4, §5, §6

PDC-88 [5] = experiment: as above; assay type: biochemical, Pseudomonas aeruginosa; conditions: cefepime as substrate
Description: as §3, §4, §5, §6

PDC-88 [6] = target: T2, PDC-88; experiment: Timed ESI-MS of acyl-enzyme formation, PDC-88; assay type: biochemical; conditions: timed ESI-MS, 1 to 30 min (ATM to 60 min)
Description: Timed ESI-MS experiments allow tracking of the reaction over time and determination of product modification, enabling the elucidation of mechanistic detail. Time courses were collected for both PDC-3 and PDC-88 with FEP (Fig. 4), CAZ (Fig. S1), TOL (Fig. S2), and ATM (Fig. S3). Substrate modification (here, loss of the R2 group) was determined based on differences between masses of apo and acyl-enzyme peaks (Fig. S4). […] Based on the differences in mass between the apo enzyme peaks, the acyl-enzyme peaks, and the molecular masses of each substrate, the mass of the adducts was determined and used to predict any portion of the substrate molecule that might be lost during the reaction (Fig. S4). As expected ([26][–][28]), all three cephalosporin antibiotics (FEP, CAZ, and TOL) lost their R2 groups during the reaction, while ATM (the sole monobactam) maintained its initial mass.
Five micrograms of PDC-3 or PDC-88 was incubated at the indicated molar ratio (1:2 to 1:100 PDC:β-lactam) in a total volume of 20 µL in 1× PBS at pH 7.4 at room temperature for the duration of the indicated time points. Reactions were quenched with the addition of 10 µL acetonitrile and added to 1 mL of 0.1% formic acid in water.
Data were collected using a Waters Synapt G2-Si quadrupole time-of-flight (Q-TOF) mass spectrometer and Waters Acquity UPLC BEH C18 1.7 µm column (2.1 by 100 mm). MassLynx V4.1 was used to deconvolute protein peaks. The tune settings for each sample were as follows: capillary voltage of 3.5 kV, sampling cone voltage of 35 V, source offset of 35 V, source temperature of 100°C, desolvation temperature of 500°C, cone gas flow rate of 100 L/h, desolvation gas flow rate of 800 L/h, and nebulizer bar at 6.0. Mobile phase A was 0.1% formic acid in water. Mobile phase B was 0.1% formic acid in acetonitrile. The mass accuracy of this system is ±5 Da.

[7] = FEP hydrolysis by PDC-3, 1× PBS pH 7.4, room temperature
[8] = FEP hydrolysis by PDC-88, 1× PBS pH 7.4, room temperature

For `CO/N=C(\C(=O)N[C@@H]1C(=O)N2C(C(=O)[O-])=C(C[N+]3(C)CCCC3)CS[C@H]12)c1csc(N)n1` [FEP, cefepime], the MIC ([1]; read-out: MIC FEP AVI) was 0.25 µg/mL (≈ 0.52 µM), the MIC ([1]; read-out: MIC FEP TZB) was 2 µg/mL (≈ 4.16 µM) and the MIC ([1]; E. coli DH10B/pTU609 (PDC-3), FEP with TAN at constant 4 µg/mL, read-out: MIC FEP TAN) was 0.25 µg/mL (≈ 0.52 µM). It also gave an MIC ([1]; E. coli DH10B/pTU609 (PDC-3), read-out: MIC FEP Alone) of 2 µg/mL (≈ 4.16 µM), an MIC ([2]; read-out: MIC FEP AVI) of 0.5 µg/mL (≈ 1.04 µM) and an MIC ([2]; read-out: MIC FEP TZB) of 32 µg/mL (≈ 66.6 µM). It also gave an MIC ([2]; E. coli DH10B/pTU628 (PDC-91), FEP with TAN at constant 4 µg/mL, read-out: MIC FEP TAN) of 0.5 µg/mL (≈ 1.04 µM), an MIC ([2]; E. coli DH10B/pTU628 (PDC-91), read-out: MIC FEP Alone) of 32 µg/mL (≈ 66.6 µM) and an MIC ([3]; read-out: MIC FEP AVI) of 0.5 µg/mL (≈ 1.04 µM). It also gave an MIC ([3]; read-out: MIC FEP TZB) of 32 µg/mL (≈ 66.6 µM), an MIC ([3]; E. coli DH10B/pTU629 (PDC-92), FEP with TAN at constant 4 µg/mL, read-out: MIC FEP TAN) of 0.25 µg/mL (≈ 0.52 µM) and an MIC ([3]; E. coli DH10B/pTU629 (PDC-92), read-out: MIC FEP Alone) of 64 µg/mL (≈ 133 µM). It also gave an MIC (E. coli NCTC 13353; NCTC13353, read-out: MIC FEP Alone) of 64 µg/mL (≈ 133 µM), an MIC (E. coli NCTC 13353; NCTC13353, read-out: MIC FEP TAN) of 0.12 µg/mL (≈ 0.25 µM) and a Km (PDC-3; [7]) of 205 ± 9 µM. For the same compound, the kcat (PDC-3; [7]) was 0.25 ± 0.02 s⁻¹, the hydrolysis progress curve (PDC-3; PDC-3, over 900 s, versus UV-mediated background) was “slightly above background” and the Km (PDC-88 [4]; [8]) was 16 ± 1 µM. The kcat (PDC-88 [4]; [8]) was 0.16 ± 0.01 s⁻¹, the hydrolysis progress curve (PDC-88 [4]; PDC-88, over 900 s, compared to PDC-3) was “increased hydrolysis” and the “decrease of KM, PDC-88 compared to PDC-3” value (PDC-88 [5]) was 12.8 fold. For the same compound, the “decrease of kcat, PDC-88 compared to PDC-3” value (PDC-88 [5]) was 1.6 fold, the “higher catalytic efficiency (kcat/KM) of PDC-88 compared to PDC-3” value (PDC-88 [5]) was “approximately 8.3 fold” and the “higher catalytic efficiency (kcat/KM) of PDC-88 compared to PDC-3” value (PDC-88 [5]; listed as cefepime) was 8.3 fold. For the same compound, the “acyl-enzyme complex formation and deacylation” value (PDC-88 [6]) was “formed an acyl-enzyme complex with FEP, followed by relatively quick deacylation”.
